Assay results: publication PMC12051620, “Molecular basis underlying the specificity of an antagonist AA92593 for mammalian melanopsins” (The Journal of Biological Chemistry, 2025)

Experiments:
Assay in all cases: GsX GloSensor assay with Gsα/q11
Format in all cases: cell-based
Conditions in all cases: 16.7 μM AA92593, COS-1 cells
[1] = system: mouse melanopsin S269^6.52A mutant
[2] = system: jumping spider rhodopsin-1 M94^2.61F/T188^ECL2S/L269^6.52S
From the text: (§1) We next tested the effect of AA92593 on jumping spider rhodopsin-1, a Gq-coupled visual opsin but not melanopsin (see Figs. 2, S2, and S3) ([41]). Similar to non-mammalian-type and invertebrate melanopsins, jumping spider rhodopsin-1 was not sensitive to AA92593 as assessed using the GsX GloSensor assay (Fig. 7L). […] The introduction of I189^ECL2W/Y207^5.42F impaired the light-dependent cAMP responses even in the absence of AA92593 (Fig. S11). Taken together, the non-melanopsin Gq-coupled opsin cannot be functionally converted to an AA92593-sensitive type by site-directed mutagenesis, in contrast to non-mammalian-type and invertebrate melanopsins.
(§2) For GloSensor assay, opsins, GloSensor assay sensor (coded by pGlo-22F), and NanoBiT-tagged G proteins were transiently expressed in COS-1 cells (kindly provided from Dr David Farrens, Oregon Health and Science University) using PEI as described previously ([24], [52]). […] For GFP-fluorescence microscopy, a 35-mm cell culture dish (IWAKI) was transfected with 2 μg melanopsin-GFP plasmid and 8 μg PEI in 400 μl Opti-mem and 1.2 ml D-MEM. […]
(§3) The transfected COS-1 cells were incubated at 37 °C, 5% CO2 for 2 days, and the medium was aspirated and exchanged with 50 μl of HBSS (145 mM NaCl, 10 mM D-glucose, 5 mM KCl, 1 mM MgCl2, 1.7 mM CaCl2, 1.5 mM NaHCO3, 10 mM Hepes, pH 7.4), containing 33.3, 20, 10, 2, 0.2, 0.02, 0.002, or 0 μM AA92593, 0.5% dimetyl sulfoxide (DMSO), and 4% (vol/vol) GloSensor cAMP reagent stock solution. […] Then, the cells were incubated at room temperature for 1 h, and luminescence changes were monitored. After incubation of the cells with AA92593, luminescence measurement was interrupted, the plate was ejected, and the cells were added with 50 μl of HBSS containing 0.2 μM 9-cis-retinal. […] Luminescence was measured using GM-2000 or GM-3510 microplate reader (Promega). Luminescence level of each well was measured every 30 s with integration time of 0.6 to 0.9 s. […] After illumination, luminescence measurement was resumed. The measured luminescence levels were normalized to the level at the starting point (time = 0 min). […]

[3] = system: jumping spider rhodopsin-1 Y207^5.42F
From the text: as §1, §2, §3

[4] = system: jumping spider rhodopsin-1 I189^ECL2W
From the text: as §1, §2, §3

COc1ccc(S(=O)(=O)N2CCCCC2)cc1C [AA92593]
reduction of the antagonistic effect of AA92593 vs WT [1]: ~25%
change in sensitivity to AA92593 vs WT [2]: did not increase
change in sensitivity to AA92593 vs WT [3]: did not increase
change in sensitivity to AA92593 vs WT [4]: did not increase
